The values below come from patent publication US5236936A, “Pyridine compounds which are useful as angiotensin II receptor antagonists” (Imperial Chemical Industries PLC, priority 1991, dated 1993).

Experiment [1] deals with angiotensin II-induced pressor responses. The experiment can be described thus: Test C: antagonism of angiotensin II-induced pressor responses in terminally-anaesthetised or conscious rats. Format: in vivo. Particulars: iv, rat, i.v. administration. Here is the method: Test C: This in vivo test involves using terminally-anaesthetised or conscious rats in which an arterial catheter has been implanted under anaesthesia for the measurement of changes in blood pressure. The AII antagonistic effects of the test compound following oral or parenteral administration, are assessed against angiotensin II-induced pressor responses. To ensure that the effect is specific, the effect of the test compound on vasopressin-induced pressor responses may also be determined in the same preparation.

Experiment [2] has as its target T1, AII receptors (guinea pig adrenal gland cell surface membrane fraction) (Cavia porcellus, UniProt Q9WV26).
T1 construct: from tissue; host or cells: guinea pig adrenal gland, cell surface membrane fraction
T1 sequence (Q9WV26 1-359): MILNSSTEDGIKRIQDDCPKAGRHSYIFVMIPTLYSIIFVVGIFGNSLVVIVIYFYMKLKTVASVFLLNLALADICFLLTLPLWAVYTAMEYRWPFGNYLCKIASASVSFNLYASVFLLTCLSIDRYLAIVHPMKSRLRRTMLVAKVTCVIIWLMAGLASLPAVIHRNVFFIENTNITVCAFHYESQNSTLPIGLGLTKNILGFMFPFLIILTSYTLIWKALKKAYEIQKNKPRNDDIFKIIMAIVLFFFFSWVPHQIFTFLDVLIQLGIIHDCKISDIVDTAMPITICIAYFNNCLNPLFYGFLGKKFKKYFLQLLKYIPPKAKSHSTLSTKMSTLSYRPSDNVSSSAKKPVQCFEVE
The experiment is described as follows: Test A: displacement of radiolabelled AII binding to guinea pig adrenal gland cell surface membranes. Particulars: read-out: IC50 (concentration for 50% displacement of radiolabelled AII binding). Here is the method:
Test A: This in vitro procedure involves the incubation of the test compound initially at a concentration of 100 micromolar (or less) in a buffered mixture containing fixed concentrations of radiolabelled AII and a cell surface membrane fraction prepared from a suitable angiotensin target tissue. In this test, the source of cell surface membranes is the guinea pig adrenal gland which is well known to respond to AII. Interaction of the radiolabelled AII with its receptors (assessed as radiolabel bound to the particulate membrane fraction following removal of unbound radiolabel by a rapid filtration procedure such as is standard in such studies) is antagonized by compounds which also bind to the membrane receptor sites and the degree of antagonism (observed in the test as displacement of membrane-bound radioactivity) is determined readily by comparing the receptor-bound radioactivity in the presence of the test compound at the specified test concentration with a control value determined in the absence of the test compound. Using this procedure compounds showing at least 50% displacement of radiolabelled AII binding at a concentration of 10^-4 M are retested at lower concentrations to determine their potency. […]

One may read the ED50 as the dose that gives a 50% effect, or the effect in half of the subjects. Turning to `CCc1cc(OCc2ccc(-c3ccccc3-c3nnn[nH]3)cc2)c(-c2ccncc2)c(C)n1.Cl.Cl` [Example 3, 6-ethyl-2-methyl-3-(4-pyridyl)-4-[(2'-(1H-tetrazol-5-yl)biphenyl-4-yl)methoxy]pyridine dihydrochloride], it took a dose of 0.18 mg/kg to reach the 50% effect level in experiment [1] (ED50). Moreover, the IC50 in experiment [2] is 5.5 nM.
